system: N-methyl-D-aspartate (NMDA) receptor; experiment: not given; conditions: at higher concentrations; cited from earlier work

| Structure (SMILES) | NMDA receptor activity inhibition |
| --- | --- |
| Cc1cccc(C#Cc2ccccc2)n1 [MPEP, 2-methyl-6-(phenylethynyl) pyridine] | directly inhibit |

target: mGluR4 (Homo sapiens, UniProt Q14833); experiment: not given; conditions: cited from earlier work
Sequence (Q14833 33-912): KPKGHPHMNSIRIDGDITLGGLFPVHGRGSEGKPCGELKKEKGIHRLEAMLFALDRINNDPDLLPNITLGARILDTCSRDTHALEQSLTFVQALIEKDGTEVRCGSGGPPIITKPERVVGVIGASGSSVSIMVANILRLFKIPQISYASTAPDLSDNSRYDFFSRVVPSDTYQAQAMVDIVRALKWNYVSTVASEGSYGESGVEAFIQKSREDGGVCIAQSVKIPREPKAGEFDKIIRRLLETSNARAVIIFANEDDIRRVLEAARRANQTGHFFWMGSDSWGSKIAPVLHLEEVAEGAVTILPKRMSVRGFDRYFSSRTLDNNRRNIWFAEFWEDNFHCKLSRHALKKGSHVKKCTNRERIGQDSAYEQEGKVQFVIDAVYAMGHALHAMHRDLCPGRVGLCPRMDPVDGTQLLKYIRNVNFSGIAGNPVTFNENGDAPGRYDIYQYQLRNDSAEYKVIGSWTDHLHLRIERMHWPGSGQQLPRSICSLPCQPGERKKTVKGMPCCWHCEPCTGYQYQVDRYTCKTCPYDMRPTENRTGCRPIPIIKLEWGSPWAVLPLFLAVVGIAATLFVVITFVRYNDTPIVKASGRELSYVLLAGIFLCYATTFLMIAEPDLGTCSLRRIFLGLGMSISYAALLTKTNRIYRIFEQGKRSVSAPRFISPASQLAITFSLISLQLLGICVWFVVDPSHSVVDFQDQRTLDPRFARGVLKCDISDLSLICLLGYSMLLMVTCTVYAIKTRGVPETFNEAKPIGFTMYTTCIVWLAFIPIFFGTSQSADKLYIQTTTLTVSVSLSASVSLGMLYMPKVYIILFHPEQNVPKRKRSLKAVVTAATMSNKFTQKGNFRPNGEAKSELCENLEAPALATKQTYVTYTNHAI

| Structure (SMILES) | Activity at mGluR4 |
| --- | --- |
| Cc1cccc(C#Cc2ccccc2)n1 [MPEP, 2-methyl-6-(phenylethynyl) pyridine] | positive allosteric modulator |

target: T1, rat mGluR5 (Rattus norvegicus, UniProt P31424); experiment: mGluR5 calcium flux assay in HEK 293A cells, negative allosteric modulation of glutamate EC80 response; assay type: cell-based; conditions: HEK cells transfected with rat mGluR5; glutamate EC80; ± is standard error of at least three experiments
T1 construct: expressed in transfected cells
T1 sequence (P31424 21-1203): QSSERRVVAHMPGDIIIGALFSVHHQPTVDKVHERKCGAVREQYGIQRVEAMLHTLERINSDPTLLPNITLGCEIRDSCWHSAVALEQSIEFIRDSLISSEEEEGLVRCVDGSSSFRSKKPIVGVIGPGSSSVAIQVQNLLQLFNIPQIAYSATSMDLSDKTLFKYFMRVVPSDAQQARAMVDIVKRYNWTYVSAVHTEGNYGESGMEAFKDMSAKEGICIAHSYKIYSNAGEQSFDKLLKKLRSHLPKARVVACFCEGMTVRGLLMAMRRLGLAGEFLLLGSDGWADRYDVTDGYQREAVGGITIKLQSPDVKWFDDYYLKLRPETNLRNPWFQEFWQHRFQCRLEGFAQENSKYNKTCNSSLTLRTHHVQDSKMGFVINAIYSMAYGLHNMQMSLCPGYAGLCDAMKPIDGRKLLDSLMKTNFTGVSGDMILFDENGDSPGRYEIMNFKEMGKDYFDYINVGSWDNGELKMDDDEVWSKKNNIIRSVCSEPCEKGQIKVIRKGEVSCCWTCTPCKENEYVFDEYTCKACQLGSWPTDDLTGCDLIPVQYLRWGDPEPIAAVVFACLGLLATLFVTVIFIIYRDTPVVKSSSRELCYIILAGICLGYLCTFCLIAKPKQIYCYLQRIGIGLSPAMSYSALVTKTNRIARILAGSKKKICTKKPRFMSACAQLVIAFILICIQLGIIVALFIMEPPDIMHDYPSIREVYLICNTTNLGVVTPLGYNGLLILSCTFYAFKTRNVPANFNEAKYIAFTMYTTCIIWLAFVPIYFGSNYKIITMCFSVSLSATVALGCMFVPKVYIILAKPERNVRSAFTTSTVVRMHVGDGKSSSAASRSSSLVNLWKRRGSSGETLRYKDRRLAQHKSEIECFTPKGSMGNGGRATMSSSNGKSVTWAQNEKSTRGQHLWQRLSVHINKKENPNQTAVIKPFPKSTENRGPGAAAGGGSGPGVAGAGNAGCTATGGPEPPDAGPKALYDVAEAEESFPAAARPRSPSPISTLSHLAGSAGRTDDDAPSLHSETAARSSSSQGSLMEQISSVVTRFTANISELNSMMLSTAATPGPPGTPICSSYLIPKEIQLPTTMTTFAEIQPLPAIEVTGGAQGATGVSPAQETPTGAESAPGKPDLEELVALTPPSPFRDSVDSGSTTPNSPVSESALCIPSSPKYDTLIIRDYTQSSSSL
Description: HEK 293A cells stably expressing either rat or human mGluR5 were plated in black-walled, clear-bottomed, poly-D-lysine coated 384-well plates in 20 μL of assay medium (DMEM containing 10% dialyzed FBS, 20 mM HEPES, 100 units/mL penicillin/streptomycin plus 250 ng/mL Fungizone, and 1 mM sodium pyruvate) at a density of 20K cells/well. The cells were grown overnight at 37° C. in the presence of 5% CO2. The next day, medium was removed and the cells incubated with 20 μL of 2.3 µM Fluo-4, AM prepared as a 2.3 mM stock in DMSO and mixed in a 1:1 ratio with 10% (w/v) pluronic acid F-127 and diluted in assay buffer (Hank's balanced salt solution, 20 mM HEPES, and 2.5 mM probenecid) for 45 minutes at 37° C. Dye was removed, 20 μL of assay buffer was added, and the plate was incubated for 5 minutes at room temperature.
Ca^2+ flux was measured using the Functional Drug Screening System (FDSS7000, Hamamatsu, Japan). After establishment of a fluorescence baseline for about 3 seconds, the compounds of the present invention were added to the cells, and the response in cells was measured. 2.3 minutes later an EC20 concentration of the mGluR5 receptor agonist glutamate was added to the cells, and the response of the cells was measured for 1.9 minutes; an EC80 concentration of agonist was added and readings taken for an additional 1.7 minutes. All test compounds were dissolved and diluted to a concentration of 10 mM in 100% DMSO. Compounds were then serially diluted 1:3 in DMSO into 10 point concentration response curves, transferred to daughter plates, and further diluted into assay buffer to a 2× stock. Calcium fluorescence measures were recorded as fold over basal fluorescence; raw data was then normalized to the maximal response to glutamate. Antagonism of the agonist response of the mGluR5 receptor in the present invention was observed as a decrease in response to nearly maximal concentrations of glutamate in the presence of compound compared to the response to glutamate in the absence of compound.
The raw data file containing all time points was used as the data source in the analysis template. This was saved by the FDSS as a tab-delimited text file. Data were normalized using a static ratio function (F/F0) for each measurement of the total 360 values per well divided by each well's initial value. Data were then reduced to peak amplitudes (Max−Initial Min) using a time range that starts approximately 3 seconds prior to the glutamate EC20/EC80 addition and continues for approximately 90-120 seconds. This is sufficient time to capture the peak amplitude of the cellular calcium response. Individual amplitudes were expressed as % EMax by multiplying each amplitude by 100 and then dividing the product by the mean of the amplitudes derived from the glutamate ECMax-treated wells. IC50 values for test compounds were generated by fitting the normalized values versus the log of the test compound concentration (in mol/L) using a 4 parameter logistic equation where none of the parameters were fixed. Each of the three values collected at each concentration of test compound were weighted evenly.
For NAMs with a CRC that plateaus above 10% Glu Max, the IC50 values are reported, the compound is designated a “partial NAM” and the % Glu Max is reported. […] Compounds without measurable activity are designated as “>30,000 nM” since the top concentration of compound tested in the assay is 30 µM. Exemplary data are provided in Tables 1 and 2 below.
Table 1 below lists specific compounds, experimentally determined molecular mass, and mGluR5 activity determined in a cell-based assay. The mGluR5 activity was determined using the metabotropic glutamate receptor activity assays in human embryonic kidney cells as described herein, wherein the human embryonic kidney cells were transfected with rat mGluR5. The mGluR5 activity data for some compounds are shown as the average of at least three experiments with the standard error in these cases. […]

| Structure (SMILES) | IC50 |
| --- | --- |
| Cc1cc(OC2CCCCC2)cc(C(=O)Nc2ccc(F)cn2)n1 | 3350 nM |
| COC[C@@H](C)Oc1cc(C)nc(C(=O)Nc2nc(C)cs2)c1 | 1030 nM |
| CCCCOC(=O)N1CC(Oc2cc(C)nc(C(=O)Nc3ccc(F)cn3)c2)C1 | 11200 nM |
| COC(=O)N1CC(Oc2cc(C)nc(C(=O)Nc3nc(C)cs3)c2)C1 | 686 nM |
| COCCOCCOc1cc(C)nc(C(=O)Nc2ccccn2)c1 | 2540 nM |
| Cc1cc(OC2CCS(=O)(=O)C2)cc(C(=O)Nc2ccc(F)cn2)n1 (centres unmarked) | 634 nM |
| Cc1cc(O[C@H]2CO[C@@H](C)C2)cc(C(=O)Nc2ccc(F)cn2)n1 | 4470 ± 260 nM |
| Cc1cc(OCC2COC2)cc(C(=O)Nc2nc(C)cs2)n1 | 143 ± 32 nM |
| Cc1cc(O[C@H]2CCCOC2)cc(C(=O)Nc2ccccn2)n1 | 75 nM |
| COCCOc1cc(C)nc(C(=O)Nc2nc(C)cs2)c1 | 82 ± 12 nM |
| Cc1cc(OC[C@@H]2CCOC2)cc(C(=O)Nc2nc(C)cs2)n1 | 151 ± 38 nM |
| Cc1cc(OC2COC2)cc(C(=O)Nc2ccc(F)cn2)n1 | 212 ± 8 nM |
| Cc1cc(O[C@H]2CO[C@@H](C)C2)cc(C(=O)Nc2nc(C)cs2)n1 | 684 ± 107 nM |
| COCCOc1cc(C)nc(C(=O)Nc2ccc(F)cn2)c1 | 527 nM |
| Cc1cc(OC[C@H]2CCOC2)cc(C(=O)Nc2ccc(F)cn2)n1 | 4890 nM |
| Cc1cc(OCC2COCCO2)cc(C(=O)Nc2nc(C)cs2)n1 (centres unmarked) | 616 nM |
| Cc1cc(OC2CC3(COC3)C2)cc(C(=O)Nc2nc(C)cs2)n1 | 433 nM |
| Cc1cc(O[C@H]2CO[C@H](C)C2)cc(C(=O)Nc2nc(C3CC3)cs2)n1 | 899 nM |
| Cc1cc(OC2CN(C(=O)CC(C)C)C2)cc(C(=O)Nc2ccc(F)cn2)n1 | 4330 nM |
| Cc1cc(OC2CCOCC2)cc(C(=O)Nc2ccccn2)n1 | 1560 nM |
| Cc1cc(OCC2CCCO2)cc(C(=O)Nc2nc(C)cs2)n1 (centres unmarked) | 273 nM |
| Cc1cc(OC2CCCOC2)cc(C(=O)Nc2ccccn2)n1 (centres unmarked) | 224 nM |
| Cc1cc(OC2CC3(COC3)C2)cc(C(=O)Nc2ccc(F)cn2)n1 | 3710 nM |
| Cc1cc(OC2COC2)cc(C(=O)Nc2cccc(F)n2)n1 | 201 nM |
| CCS(=O)(=O)N1CC(Oc2cc(C)nc(C(=O)Nc3ccc(F)cn3)c2)C1 | > 10000 nM |
| Cc1cc(OC2CCC2)cc(C(=O)Nc2nc(C)cs2)n1 | 59 ± 7 nM |
| Cc1cc(OC[C@H]2CCOC2)cc(C(=O)Nc2nc(C)cs2)n1 | 364 nM |
| Cc1cc(OC2CN(C(=O)N(C)C)C2)cc(C(=O)Nc2nc(C)cs2)n1 | > 10000 nM |

Results, then the compound that gave them:

| IC50 | Structure (SMILES) |
| --- | --- |
| 75 nM | Cc1cc(OC2CCSC2)cc(C(=O)Nc2ccc(F)cn2)n1 (centres unmarked) |
| 506 nM | COCCCOc1cc(C)nc(C(=O)Nc2nc(C)cs2)c1 |
| 1290 nM | Cc1cc(O[C@H]2CO[C@H](C)C2)cc(C(=O)Nc2nc(C)c(F)s2)n1 |
| 497 nM | Cc1cc(OC2CCCOC2)cc(C(=O)Nc2ccc(F)cn2)n1 (centres unmarked) |
| 9100 nM | COC[C@@H](C)Oc1cc(C)nc(C(=O)Nc2ccc(F)cn2)c1 |
| 120 nM | COCCOc1cc(C)nc(C(=O)Nc2ccccn2)c1 |
| 133 ± 14 nM | Cc1cc(O[C@H]2CCOC2)cc(C(=O)Nc2nc(C)cs2)n1 |
| > 10000 nM | Cc1cc(OC2CN(C(=O)N(C)C)C2)cc(C(=O)Nc2ccc(F)cn2)n1 |
| 180 nM | Cc1cc(OC2C[S+]([O-])C2)cc(C(=O)Nc2nc(C)cs2)n1 (centres unmarked) |
| 171 nM | Cc1cc(O[C@@H]2CCOC2)cc(C(=O)Nc2nc(C)c(F)s2)n1 |
| 611 nM | CCC(=O)N1CC(Oc2cc(C)nc(C(=O)Nc3nc(C)cs3)c2)C1 |
| 81 ± 13 nM | Cc1cc(O[C@H]2CO[C@H](C)C2)cc(C(=O)Nc2nc(C)cs2)n1 |
| 1050 nM | CO[C@@H](C)COc1cc(C)nc(C(=O)Nc2nc(C)cs2)c1 |
| 31 nM | Cc1cc(OC2CSC2)cc(C(=O)Nc2nc(C)cs2)n1 |
| 3980 nM | Cc1cc(OC2CN(S(=O)(=O)C(C)C)C2)cc(C(=O)Nc2ccc(F)cn2)n1 |
| 725 nM | Cc1cc(OCC2CCCO2)cc(C(=O)Nc2ccccn2)n1 (centres unmarked) |
| 2720 nM | COC[C@H](C)Oc1cc(C)nc(C(=O)Nc2ccccn2)c1 |
| 2100 nM | CCOCCOc1cc(C)nc(C(=O)Nc2ccc(F)cn2)c1 |
| 43 nM | Cc1cc(OC2CCC2)cc(C(=O)Nc2ccccn2)n1 |
| 3620 nM | Cc1cc(OC2CN(S(=O)(=O)C(C)C)C2)cc(C(=O)Nc2nc(C)cs2)n1 |
| 6930 nM | COCCOCCOc1cc(C)nc(C(=O)Nc2ccc(F)cn2)c1 |
| 902 nM | Cc1cc(O[C@H]2CO[C@H](C)C2)cc(C(=O)Nc2nc(C(F)F)cs2)n1 |
| 4100 nM | Cc1cc(OC2CN(C(=O)OC(C)C)C2)cc(C(=O)Nc2ccc(F)cn2)n1 |
| 388 nM | CC(=O)N1CC(Oc2cc(C)nc(C(=O)Nc3nc(C)cs3)c2)C1 |
| 166 nM | Cc1cc(OC[C@@H]2CCOC2)cc(C(=O)Nc2ccccn2)n1 |
| 2040 nM | Cc1cc(O[C@@H]2CCOC2)cc(C(=O)Nc2nc(C(F)(F)F)cs2)n1 |
| 756 ± 130 nM | CC(=O)N1CC(Oc2cc(C)nc(C(=O)Nc3ccc(F)cn3)c2)C1 |

same assay, conditions: rat mGluR5; CRC plateaus above 10% Glu Max

| NAM designation | Structure (SMILES) |
| --- | --- |
| Partial NAM | Cc1cc(OC2CN(S(=O)(=O)C(C)C)C2)cc(C(=O)Nc2ccc(F)cn2)n1 |
| Partial NAM | Cc1cc(OC2CN(C(=O)OC(C)C)C2)cc(C(=O)Nc2ccc(F)cn2)n1 |

same assay, conditions: rat mGluR5; average Glu Max at 30 μM; CRC does not hit a plateau

| % Glu Max at single concentration | Structure (SMILES) |
| --- | --- |
| 69% | Cc1cc(OC2CN(C(=O)N(C)C)C2)cc(C(=O)Nc2ccc(F)cn2)n1 |
| 62% | CCS(=O)(=O)N1CC(Oc2cc(C)nc(C(=O)Nc3ccc(F)cn3)c2)C1 |
| 31% | Cc1cc(OC2CN(C(=O)N(C)C)C2)cc(C(=O)Nc2nc(C)cs2)n1 |

same assay, conditions: rat mGluR5; response in presence of compound as percentage of maximal glutamate response; CRC plateaus above 10%

| % Glu Max (partial NAM, plateau of CRC) | Structure (SMILES) |
| --- | --- |
| 58% | Cc1cc(OC2CN(S(=O)(=O)C(C)C)C2)cc(C(=O)Nc2ccc(F)cn2)n1 |
| 42% | Cc1cc(OC2CN(C(=O)OC(C)C)C2)cc(C(=O)Nc2ccc(F)cn2)n1 |

system: marble burying in mice; experiment: not given; conditions: cited from earlier work

| Structure (SMILES) | Efficacy in marble burying model |
| --- | --- |
| CN1CC(=O)N=C1NC(=O)Nc1cccc(Cl)c1 [fenobam, 1-(3-chlorophenyl)-3-(1-methyl-4-oxo-4,5-dihydro-1H-imidazol-2-yl)urea] | effective |
| Cc1cccc(C#Cc2ccccc2)n1 [MPEP, 2-methyl-6-(phenylethynyl) pyridine] | effective |

target: T2, cytochrome P450 1A2 (Homo sapiens, UniProt P05177); experiment: not given; conditions: cited from earlier work
T2 sequence (P05177 1-516): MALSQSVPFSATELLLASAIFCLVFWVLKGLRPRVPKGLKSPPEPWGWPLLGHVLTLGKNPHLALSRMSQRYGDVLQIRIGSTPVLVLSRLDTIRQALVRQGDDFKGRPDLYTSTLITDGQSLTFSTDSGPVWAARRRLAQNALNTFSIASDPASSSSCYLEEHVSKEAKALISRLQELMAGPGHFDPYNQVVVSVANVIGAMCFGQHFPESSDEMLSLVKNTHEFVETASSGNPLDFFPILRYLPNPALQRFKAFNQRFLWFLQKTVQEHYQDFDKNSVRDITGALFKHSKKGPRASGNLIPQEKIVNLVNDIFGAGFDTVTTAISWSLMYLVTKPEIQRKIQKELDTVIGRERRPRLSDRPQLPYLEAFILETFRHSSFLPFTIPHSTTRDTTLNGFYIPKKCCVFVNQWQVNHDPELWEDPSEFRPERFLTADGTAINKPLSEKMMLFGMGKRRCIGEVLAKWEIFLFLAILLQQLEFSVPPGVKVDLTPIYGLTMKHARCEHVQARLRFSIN

| Structure (SMILES) | Inhibition of cytochrome P450 1A2 |
| --- | --- |
| Cc1nc(C#Cc2cccnc2)cs1 [MTEP, 3-[(2-methyl-1,3-thiazol-4-yl)ethynyl]pyridine] | potent inhibitor |

system: not given; experiment: not given; conditions: intravenous administration to rhesus monkeys; cited from earlier work

| Structure (SMILES) | Clearance |
| --- | --- |
| Cc1nc(C#Cc2cccnc2)cs1 [MTEP, 3-[(2-methyl-1,3-thiazol-4-yl)ethynyl]pyridine] | efficiently cleared |

Source: US20170247366A1, “SUBSTITUTED 4-ALKOXYPICOLINAMIDE ANALOGS AS MGLUR5 NEGATIVE ALLOSTERIC MODULATORS AND METHODS OF MAKING AND USING THE SAME” (VANDERBILT UNIVERSITY, priority 2014, published 2017)
